Test results taken from ChEMBL document CHEMBL4840352 (J Med Chem, 2021).
pIC50: −log10 of the molar value. Active and inactive are the calls of the source. The calls are words filed in the database; no cut-off is given here.

Tests used:
MOLM-13 [1] = test: Antiproliferative activity against human MOLM-13 cells incubated for 48 hrs by CCK-8 assay; type: functional, cell-based; conditions: MOLM-13, 48 h
MV4-11 [2] = test: Antiproliferative activity against human MV4-11 cells incubated for 48 hrs by CCK-8 assay; type: functional, cell-based; conditions: MV4-11, 48 h
[3] = molecular target: Mast/stem cell growth factor receptor Kit (Homo sapiens) (UniProt P10721); test: Inhibition of KIT (unknown origin) at 1000 nM relative to control
Sequence of Mast/stem cell growth factor receptor Kit (Homo sapiens) (P10721 whole entry): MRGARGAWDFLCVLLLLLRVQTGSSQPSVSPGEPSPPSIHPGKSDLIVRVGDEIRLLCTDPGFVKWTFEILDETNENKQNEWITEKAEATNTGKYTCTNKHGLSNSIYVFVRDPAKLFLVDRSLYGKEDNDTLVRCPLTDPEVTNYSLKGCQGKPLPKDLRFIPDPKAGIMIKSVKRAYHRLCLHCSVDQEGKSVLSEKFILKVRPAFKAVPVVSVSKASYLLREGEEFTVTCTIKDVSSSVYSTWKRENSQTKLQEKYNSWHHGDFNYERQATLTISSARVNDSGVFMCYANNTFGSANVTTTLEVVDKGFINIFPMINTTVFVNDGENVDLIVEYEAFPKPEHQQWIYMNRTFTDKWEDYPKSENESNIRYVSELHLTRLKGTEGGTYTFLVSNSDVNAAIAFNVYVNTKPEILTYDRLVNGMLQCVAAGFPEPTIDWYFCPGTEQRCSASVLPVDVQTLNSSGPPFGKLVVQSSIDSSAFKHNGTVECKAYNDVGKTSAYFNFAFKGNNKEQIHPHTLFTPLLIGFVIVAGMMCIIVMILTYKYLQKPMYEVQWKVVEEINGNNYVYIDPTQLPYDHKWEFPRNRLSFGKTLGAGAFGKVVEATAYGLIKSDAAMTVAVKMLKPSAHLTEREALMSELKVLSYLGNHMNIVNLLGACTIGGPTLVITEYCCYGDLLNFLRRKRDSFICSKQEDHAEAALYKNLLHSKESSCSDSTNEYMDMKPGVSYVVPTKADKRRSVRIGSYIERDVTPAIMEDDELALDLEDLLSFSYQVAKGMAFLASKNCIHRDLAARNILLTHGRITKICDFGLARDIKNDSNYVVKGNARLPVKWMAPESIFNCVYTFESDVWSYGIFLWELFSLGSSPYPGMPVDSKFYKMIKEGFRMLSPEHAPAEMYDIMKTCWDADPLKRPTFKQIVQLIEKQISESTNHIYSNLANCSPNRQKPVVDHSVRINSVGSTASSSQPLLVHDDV

[4] = molecular target: Mitogen-activated protein kinase kinase kinase kinase 1 (Homo sapiens) (UniProt Q92918); test: Inhibition of HPK1 (unknown origin) at 1000 nM relative to control
[5] = molecular target: CDK7/Cyclin H/MNAT1 (Homo sapiens) (UniProt P51946+P50613+P51948); test: Inhibition of CDK7/cyclinH/MAT1 (unknown origin) at 1000 nM relative to control; type: protein-complex assay
[6] = molecular target: Serine/threonine-protein kinase 4 (Homo sapiens) (UniProt Q13043); test: Inhibition of MST1 (unknown origin) at 1000 nM relative to control
Sequence of Serine/threonine-protein kinase 4 (Homo sapiens) (Q13043 whole entry): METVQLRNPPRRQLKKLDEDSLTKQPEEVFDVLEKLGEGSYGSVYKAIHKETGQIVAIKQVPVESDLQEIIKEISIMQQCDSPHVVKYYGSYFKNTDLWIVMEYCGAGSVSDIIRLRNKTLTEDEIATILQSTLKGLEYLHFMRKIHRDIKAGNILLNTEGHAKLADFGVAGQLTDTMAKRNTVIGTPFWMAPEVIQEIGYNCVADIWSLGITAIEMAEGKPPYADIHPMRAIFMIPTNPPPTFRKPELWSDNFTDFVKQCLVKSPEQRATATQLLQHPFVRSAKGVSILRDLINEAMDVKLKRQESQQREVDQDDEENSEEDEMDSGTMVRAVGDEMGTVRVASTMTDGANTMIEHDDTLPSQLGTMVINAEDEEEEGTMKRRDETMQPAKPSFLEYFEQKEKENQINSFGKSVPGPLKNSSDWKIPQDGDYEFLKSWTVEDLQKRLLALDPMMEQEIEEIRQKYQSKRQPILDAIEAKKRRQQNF

[7] = molecular target: Proto-oncogene tyrosine-protein kinase Src (Homo sapiens) (UniProt P12931); test: Inhibition of SRC (unknown origin) at 1000 nM relative to control
Sequence of Proto-oncogene tyrosine-protein kinase Src (Homo sapiens) (P12931 2-536 limits assumed): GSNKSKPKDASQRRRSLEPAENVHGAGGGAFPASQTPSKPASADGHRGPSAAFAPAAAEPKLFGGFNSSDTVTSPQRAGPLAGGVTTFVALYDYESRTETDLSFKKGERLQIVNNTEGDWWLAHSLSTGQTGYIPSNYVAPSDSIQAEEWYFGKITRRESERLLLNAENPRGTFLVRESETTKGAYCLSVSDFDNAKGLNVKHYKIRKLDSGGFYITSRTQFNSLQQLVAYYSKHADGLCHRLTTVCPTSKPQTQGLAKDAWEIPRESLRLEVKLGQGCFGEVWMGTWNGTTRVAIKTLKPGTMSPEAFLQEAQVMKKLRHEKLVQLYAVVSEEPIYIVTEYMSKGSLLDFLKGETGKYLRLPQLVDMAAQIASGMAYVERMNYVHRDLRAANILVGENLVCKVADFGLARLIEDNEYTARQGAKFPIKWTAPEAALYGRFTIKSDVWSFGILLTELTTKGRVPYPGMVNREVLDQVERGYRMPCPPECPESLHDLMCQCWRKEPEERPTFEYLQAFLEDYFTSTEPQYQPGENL

[8] = molecular target: Serine/threonine-protein kinase TBK1 (Homo sapiens) (UniProt Q9UHD2); test: Inhibition of TBK1 (unknown origin) at 1000 nM relative to control
[9] = molecular target: Tyrosine-protein kinase JAK3 (Homo sapiens) (UniProt P52333); test: Inhibition of JAK3 (unknown origin) at 1000 nM relative to control
[10] = molecular target: Aurora kinase A (Homo sapiens) (UniProt O14965); test: Inhibition of AURORA-A (unknown origin) at 1000 nM relative to control
Sequence of Aurora kinase A (Homo sapiens) (O14965 whole entry, the tested form may be a part): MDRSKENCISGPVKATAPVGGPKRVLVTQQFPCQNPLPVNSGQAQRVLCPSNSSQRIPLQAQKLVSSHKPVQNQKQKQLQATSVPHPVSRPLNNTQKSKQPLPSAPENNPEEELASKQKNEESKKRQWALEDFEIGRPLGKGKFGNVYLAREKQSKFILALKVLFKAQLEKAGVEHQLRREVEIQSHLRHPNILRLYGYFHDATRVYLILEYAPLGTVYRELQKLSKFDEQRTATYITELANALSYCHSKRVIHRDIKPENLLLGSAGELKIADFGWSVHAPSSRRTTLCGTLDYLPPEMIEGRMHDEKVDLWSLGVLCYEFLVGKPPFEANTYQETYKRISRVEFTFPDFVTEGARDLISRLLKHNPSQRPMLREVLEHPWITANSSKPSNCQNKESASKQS

[11] = molecular target: Discoidin domain-containing receptor 2 (Homo sapiens) (UniProt Q16832); test: Inhibition of DDR2 (unknown origin) at 1000 nM relative to control
[12] = molecular target: Receptor tyrosine-protein kinase erbB-2 (Homo sapiens) (UniProt P04626); test: Inhibition of HER2 (unknown origin) at 1000 nM relative to control
[13] = molecular target: Rho-associated protein kinase 1 (Homo sapiens) (UniProt Q13464); test: Inhibition of ROCK1 (unknown origin) at 1000 nM relative to control
[14] = molecular target: Glycogen synthase kinase-3 alpha (Homo sapiens) (UniProt P49840); test: Inhibition of GSK3alpha (unknown origin) at 1000 nM relative to control
[15] = molecular target: Hepatocyte growth factor receptor (Homo sapiens) (UniProt P08581); test: Inhibition of C-MET (unknown origin) at 1000 nM relative to control
[16] = molecular target: RAC-alpha serine/threonine-protein kinase (Homo sapiens) (UniProt P31749); test: Inhibition of AKT1 (unknown origin) at 1000 nM relative to control
Sequence of RAC-alpha serine/threonine-protein kinase (Homo sapiens) (P31749 whole entry): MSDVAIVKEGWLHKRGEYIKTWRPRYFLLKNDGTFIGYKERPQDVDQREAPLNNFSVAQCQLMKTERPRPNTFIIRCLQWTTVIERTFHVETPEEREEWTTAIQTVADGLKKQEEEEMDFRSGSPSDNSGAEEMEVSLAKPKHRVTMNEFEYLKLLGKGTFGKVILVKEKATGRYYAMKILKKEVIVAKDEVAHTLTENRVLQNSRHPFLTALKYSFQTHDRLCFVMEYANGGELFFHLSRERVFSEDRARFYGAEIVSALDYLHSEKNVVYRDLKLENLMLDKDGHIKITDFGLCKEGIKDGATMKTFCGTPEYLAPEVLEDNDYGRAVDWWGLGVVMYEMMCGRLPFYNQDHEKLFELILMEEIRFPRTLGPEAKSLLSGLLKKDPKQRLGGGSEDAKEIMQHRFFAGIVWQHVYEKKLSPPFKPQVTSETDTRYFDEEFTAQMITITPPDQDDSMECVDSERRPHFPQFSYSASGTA

MOLM-13 [17] = test: Induction of apoptosis in human MOLM-13 cells assessed as downregulation of Mcl-1 level at 15 nM measured upto 12 hrs by Western blot analysis; type: functional, cell-based; conditions: time hrs <=12
MOLM-13 [18] = test: Induction of apoptosis in human MOLM-13 cells assessed as downregulation of Bcl-2 level at 15 nM measured upto 12 hrs by Western blot analysis; type: functional, cell-based; conditions: time hrs <=12
MV4-11 [19] = test: Induction of apoptosis in human MV4-11 cells assessed as downregulation of Bcl-2 level at 15 nM measured upto 12 hrs by Western blot analysis; type: functional, cell-based; conditions: time hrs <=12
MOLM-13 [20] = test: Induction of apoptosis in human MOLM-13 cells assessed as upregulation of cleaved caspase-3 level at 15 nM by Western blot analysis; type: functional, cell-based; conditions: time 0-12 hrs, TDE = time-dependent effect
[21] = molecular target: Platelet-derived growth factor receptor beta (Homo sapiens) (UniProt P09619); test: Induction of PDGFR degradation in human MOLM-13 cells at 0 to 25 nM after 24 hrs by Western blot analysis; type: cell-based; conditions: dose 0-25 nM
Sequence of Platelet-derived growth factor receptor beta (Homo sapiens) (P09619 whole entry): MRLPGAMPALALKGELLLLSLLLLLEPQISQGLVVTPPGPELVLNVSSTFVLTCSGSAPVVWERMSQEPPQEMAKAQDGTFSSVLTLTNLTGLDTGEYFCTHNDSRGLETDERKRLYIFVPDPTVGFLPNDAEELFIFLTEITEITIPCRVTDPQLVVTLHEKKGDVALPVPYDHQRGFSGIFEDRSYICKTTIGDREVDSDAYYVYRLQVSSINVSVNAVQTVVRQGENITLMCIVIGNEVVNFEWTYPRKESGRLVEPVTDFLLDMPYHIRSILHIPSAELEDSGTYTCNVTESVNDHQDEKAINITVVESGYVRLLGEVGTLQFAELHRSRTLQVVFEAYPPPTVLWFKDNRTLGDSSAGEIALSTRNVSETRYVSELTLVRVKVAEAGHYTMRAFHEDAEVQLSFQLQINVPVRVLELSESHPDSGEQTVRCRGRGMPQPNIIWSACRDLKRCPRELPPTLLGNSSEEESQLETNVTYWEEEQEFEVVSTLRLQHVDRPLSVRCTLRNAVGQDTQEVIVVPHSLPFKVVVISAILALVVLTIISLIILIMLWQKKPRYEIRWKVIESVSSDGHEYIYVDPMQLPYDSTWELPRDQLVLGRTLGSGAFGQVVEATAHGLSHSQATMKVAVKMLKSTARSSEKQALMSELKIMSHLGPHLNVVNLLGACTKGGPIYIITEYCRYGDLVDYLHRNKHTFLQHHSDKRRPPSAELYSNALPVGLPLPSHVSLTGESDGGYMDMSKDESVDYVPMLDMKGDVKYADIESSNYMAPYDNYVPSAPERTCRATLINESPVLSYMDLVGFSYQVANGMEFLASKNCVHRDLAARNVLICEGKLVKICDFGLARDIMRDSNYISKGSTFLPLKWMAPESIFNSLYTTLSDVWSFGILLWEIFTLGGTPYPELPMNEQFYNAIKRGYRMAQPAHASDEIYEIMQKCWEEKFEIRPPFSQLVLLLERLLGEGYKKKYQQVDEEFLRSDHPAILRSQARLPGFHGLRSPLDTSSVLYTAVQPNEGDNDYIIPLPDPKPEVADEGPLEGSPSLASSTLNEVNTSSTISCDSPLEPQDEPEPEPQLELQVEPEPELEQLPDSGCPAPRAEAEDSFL

[22] = molecular target: Platelet-derived growth factor receptor beta (Homo sapiens) (UniProt P09619); test: Induction of PDGFR degradation in human MV4-11 cells at 0 to 25 nM after 24 hrs by Western blot analysis; type: cell-based; conditions: dose 0-25 nM
[23] = molecular target: Receptor-type tyrosine-protein kinase FLT3 (Homo sapiens) (UniProt P36888); test: Inhibition of FLT3 in human MOLM-13 cells assessed as reduction in FLT3 phosphorylation at 15 nM by Western blot analysis; type: cell-based; conditions: time 0-12 hrs, TDE = time-dependent effect
Sequence of Receptor-type tyrosine-protein kinase FLT3 (Homo sapiens) (P36888 whole entry): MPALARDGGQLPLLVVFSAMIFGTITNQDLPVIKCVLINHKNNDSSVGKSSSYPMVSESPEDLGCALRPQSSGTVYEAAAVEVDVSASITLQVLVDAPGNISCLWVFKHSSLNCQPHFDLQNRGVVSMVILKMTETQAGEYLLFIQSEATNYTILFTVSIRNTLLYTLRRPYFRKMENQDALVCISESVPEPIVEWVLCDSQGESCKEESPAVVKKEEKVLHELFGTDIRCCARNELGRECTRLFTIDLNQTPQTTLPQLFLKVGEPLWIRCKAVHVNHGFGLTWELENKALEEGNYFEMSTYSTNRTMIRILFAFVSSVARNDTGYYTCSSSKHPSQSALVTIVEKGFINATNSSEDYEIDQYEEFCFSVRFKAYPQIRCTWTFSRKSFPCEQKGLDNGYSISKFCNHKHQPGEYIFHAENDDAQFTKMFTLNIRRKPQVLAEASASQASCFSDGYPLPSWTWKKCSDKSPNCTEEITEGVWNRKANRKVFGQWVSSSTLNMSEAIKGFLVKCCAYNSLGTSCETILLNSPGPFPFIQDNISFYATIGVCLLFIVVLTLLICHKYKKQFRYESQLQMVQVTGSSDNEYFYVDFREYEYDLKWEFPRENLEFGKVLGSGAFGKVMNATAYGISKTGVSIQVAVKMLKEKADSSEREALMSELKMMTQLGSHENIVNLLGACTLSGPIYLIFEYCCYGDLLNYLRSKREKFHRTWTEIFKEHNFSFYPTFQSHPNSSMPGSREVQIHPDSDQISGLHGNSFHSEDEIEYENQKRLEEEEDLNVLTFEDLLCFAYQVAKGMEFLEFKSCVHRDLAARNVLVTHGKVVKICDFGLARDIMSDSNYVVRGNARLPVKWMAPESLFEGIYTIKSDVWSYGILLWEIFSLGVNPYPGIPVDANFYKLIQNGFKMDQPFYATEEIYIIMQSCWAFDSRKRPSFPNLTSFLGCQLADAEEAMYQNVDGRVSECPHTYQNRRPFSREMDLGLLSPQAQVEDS

[24] = molecular target: Receptor-type tyrosine-protein kinase FLT3 (Homo sapiens) (UniProt P36888); test: Inhibition of FLT3 in human MV4-11 cells assessed as reduction in FLT3 phosphorylation at 15 nM by Western blot analysis; type: cell-based; conditions: time 0-12 hrs, TDE = time-dependent effect
[25] = molecular target: Receptor-type tyrosine-protein kinase FLT3 (Homo sapiens) (UniProt P36888); test: Inhibition of FLT3 in human MOLM-13 cells assessed as reduction in STAT5 phosphorylation at 15 nM by Western blot analysis; type: cell-based; conditions: time 0-12 hrs, TDE = time-dependent effect
[26] = molecular target: Receptor-type tyrosine-protein kinase FLT3 (Homo sapiens) (UniProt P36888); test: Inhibition of FLT3 in human MOLM-13 cells assessed as reduction in AKT phosphorylation at 15 nM by Western blot analysis; type: cell-based; conditions: time 0-12 hrs, TDE = time-dependent effect
[27] = molecular target: Mast/stem cell growth factor receptor Kit (Homo sapiens) (UniProt P10721); test: Inhibition of KIT in human MV4-11 cells assessed as reduction in PI3K phosphorylation at 5 to 25 nM after 24 hrs by Western blot analysis; type: cell-based; conditions: dose 5-25 nM
[28] = test system: Receptor-type tyrosine-protein kinase FLT3 (Homo sapiens), P36888 [UNDEFINED MUTATION]; test: Induction of FLT3-ITD degradation in human MV4-11 cells at 20 nM pretreated with pomalidomide for 2 hrs followed compound addition for 6 hrs by Western blot analysis; type: cell-based
Sequence of Receptor-type tyrosine-protein kinase FLT3 (Homo sapiens), P36888 [UNDEFINED MUTATION] (P36888 whole entry, looked up, stated change not applied): as the sequence (P36888 whole entry) above

[29] = test system: Receptor-type tyrosine-protein kinase FLT3 (Homo sapiens), P36888 [UNDEFINED MUTATION]; test: Induction of FLT3-ITD degradation in human MV4-11 cells at 20 nM pretreated with dov for 2 hrs followed compound addition for 6 hrs by Western blot analysis; type: cell-based
[30] = test system: Receptor-type tyrosine-protein kinase FLT3 (Homo sapiens), P36888 [UNDEFINED MUTATION]; test: Induction of FLT3-ITD degradation in human MV4-11 cells assessed as accumulation of ubiquitinated FLT3-ITD at 15 nM preincubated for 4 hrs followed by MG132 addition for 2 hrs by immunoprecipitation assay; type: cell-based; conditions: time 6.0 hrs
MV4-11 [31] = test: Antitumor activity against human MV4-11 cells xenografted in NOD/SCID mouse assessed as reduction in CD45-positive cells in bone marrow at 3 mg/kg/day, iv administered for 12 days by flow cytometry analysis (reference value: 32.23 %); type: functional; parameters: scale not given: the % may be the effect or the level left; conditions: time 12 day
[32] = molecular target: Receptor-type tyrosine-protein kinase FLT3 (Homo sapiens) (UniProt P36888); conditions: dose 1000.0 nM
Description: Inhibition of FLT3 (unknown origin) at 1000 nM relative to control

[33] = molecular target: Tyrosine-protein kinase ITK/TSK (Homo sapiens) (UniProt Q08881); conditions: dose 1000.0 nM
Description: Inhibition of ITK (unknown origin) at 1000 nM relative to control

[34] = molecular target: Proto-oncogene tyrosine-protein kinase receptor Ret (Homo sapiens) (UniProt P07949); conditions: dose 1000.0 nM
Description: Inhibition of RET (unknown origin) at 1000 nM relative to control

[35] = molecular target: Vascular endothelial growth factor receptor 2 (Homo sapiens) (UniProt P35968); conditions: dose 1000.0 nM
Description: Inhibition of KDR (unknown origin) at 1000 nM relative to control

[36] = molecular target: Fibroblast growth factor receptor 1 (Homo sapiens) (UniProt P11362); conditions: dose 1000.0 nM
Description: Inhibition of FGFR1 (unknown origin) at 1000 nM relative to control

[37] = molecular target: Tyrosine-protein kinase receptor UFO (Homo sapiens) (UniProt P30530); conditions: dose 1000.0 nM
Description: Inhibition of AXL (unknown origin) at 1000 nM relative to control

[38] = molecular target: Homeodomain-interacting protein kinase 1 (Homo sapiens) (UniProt Q86Z02); conditions: dose 1000.0 nM
Description: Inhibition of HIPK1 (unknown origin) at 1000 nM relative to control

pIC50 (MOLM-13 [1]): 8.02 | pIC50 (MV4-11 [2]): 8.04 | inhibition [3]: 83% | inhibition [4]: 49% | inhibition [5]: 0% | inhibition [6]: 32% | inhibition [7]: 37% | inhibition [8]: 22% | inhibition [9]: 1% | inhibition [10]: 17% | inhibition [11]: 17% | inhibition [12]: 50% | inhibition [13]: 4% | inhibition [14]: 3% | inhibition [15]: 15% | inhibition [16]: 7% | Activity [21]: Active | Activity [22]: Active | inhibition [23]: Tde | inhibition [24]: Tde | inhibition [25]: Tde | inhibition [26]: Tde | inhibition [27]: Active | Activity [28]: inactive | Activity [29]: inactive | Activity [30]: Active | inhibition [32]: 93% | inhibition [33]: 42% | inhibition [34]: 39% | inhibition [35]: 69% | inhibition [36]: 17% | inhibition [37]: 20% | inhibition [38]: 5%
SMILES: Nc1c(-c2nc3cc(N4CCN(C(=O)CCCCCNc5cccc6c5C(=O)N(C5CCC(=O)NC5=O)C6=O)CC4)ccc3[nH]2)c(=O)[nH]c2cccc(F)c12 (stereo not drawn)
Activity (MOLM-13 [17]): Active | Activity (MOLM-13 [18]): Active | Activity (MV4-11 [19]): Active | Activity (MOLM-13 [20]): Tde | Activity (MV4-11 [31]): 5.19%
